Measured values as given in article PMC7181660, “A novel specific PERK activator reduces toxicity and extends survival in Huntington's disease models” (Scientific Reports, 2020).

Assays:
PERK−/− MEF cells = experiment: Rescue from tunicamycin-induced apoptosis in PERK−/− MEFs; type: cell-based; conditions: Tun
Experimental: STHdh^Q111/111 cells (used before[13]) or PERK+/+ or PERK−/− MEFs (kindly provided by David Ron, Univ. Cambridge) were incubated with Tun (10 μg/ml) for 48 h, which results in ER stress-induced cell death. Cells under the same conditions were incubated for the same times, together with Tun, with increasing concentrations of the different PERK modulators (0–120 μM) and the percent of apoptotic cells was measured by FACS cell cycle progression using propidium iodide (PI), considering the fraction beneath G0/G1. The relative apoptosis rate was calculated to be able to compare between compounds and experiments, where for each concentration curve the percent of apoptotic cells was considered 100 at concentration 0 of the PERK modulator, with only Tun. The graphs show the average relative apoptosis rate of at least 3 independent experiments for each compound.
Cells were washed with PBS and fixed with cold methanol. Before FACS analysis cells were washed with PBS, followed by addition of propidium iodide (PI) solution (10 μg/ml) and analysis by flow cytometry. Cells in sub-G0/G1 were counted as apoptotic/ dead.

HMOX1 mRNA = HMOX1 mRNA (downstream target of NRF2-P) by qPCR; type: cell-based, murine; conditions: STHdh^Q7/7 and STHdh^Q111/111 cells
Experimental: Total cell RNA was extracted with TRIzol reagent (Invitrogen) according to the manufacturer's instructions. Reverse transcription (RT) was performed with QuantaBio qScript cDNA synthesis kit. Real-time qPCR was carried out using a CFX Connect Real-Time PCR Detection System (BioRad) and the amplifications were done using the SYBR Green PCR Master Mix (pcrbio). Reactions were run in triplicates in three independent experiments. Housekeeping gene GAPDH was used as an internal control to normalize the variability of expression levels.
Suppl. Fig. S5. NRF2 activation but not involvement in cell protection by MK-28. A)
Scheme of NRF2 activation by PERK. B) qPCR of HMOX1, a downstream target of NR F2.
Medians +- interquartile range of 3 independent experiments . P values of STHdhQ7/7 MK 5µM […]
presence of Tun and the indicated concentrations of MK-28, plus increasing concentrations of the NRF2 inhibitor ML385. Average of 3 independent experiments +-SD. D) Apoptosis of STHdhQ111/111 cells treated only with increasing concentrations of ML385. Average of 3 independent experiments +-SD.
(1 picture or pasted object on this page, not shown here)

panel of 391 kinases [1] = molecular target: panel of 391 kinases (Homo sapiens, UniProt O14733); experiment: biochemical; type: biochemical; conditions: MKK7, MK-28 1 µM, ATP 1 µM
panel of 391 kinases [2] = molecular target: panel of 391 kinases (Homo sapiens, UniProt P09619); experiment: biochemical; type: biochemical; conditions: PDGFRb, MK-28 1 µM, ATP 1 µM
panel of 391 kinases [3] = molecular target: panel of 391 kinases (Homo sapiens, UniProt P41240); experiment: biochemical; type: biochemical; conditions: CSK, MK-28 1 µM, ATP 1 µM
panel of 391 kinases [4] = molecular target: panel of 391 kinases (Homo sapiens, UniProt P43405); experiment: biochemical; type: biochemical; conditions: SYK, MK-28 1 µM, ATP 1 µM
panel of 391 kinases [5] = molecular target: panel of 391 kinases (Homo sapiens, UniProt Q96KB5); experiment: biochemical; type: biochemical; conditions: PBK/TOPK, MK-28 1 µM, ATP 1 µM
panel of 391 kinases [6] = molecular target: panel of 391 kinases (Homo sapiens, UniProt Q9H4B4); experiment: biochemical; type: biochemical; conditions: PLK3, MK-28 1 µM, ATP 1 µM
panel of 391 kinases [7] = molecular target: panel of 391 kinases (Homo sapiens, UniProt Q9UQB9); experiment: biochemical; type: biochemical; conditions: Aurora C, MK-28 1 µM, ATP 1 µM
B6 wild type mice = experiment: Toxicity study, 2 weeks continuous subcutaneous Alzet pump delivery; type: in vivo; conditions: 6 mg/kg, 2 weeks continuous subcutaneous delivery
Experimental: Alzet pumps model 1004 (Alzet, USA), with a rate of 0.11 µl/hour and 28 days effective compound delivery was used. MK-28 compound was dissolved in 1:1 DMSO/PEG400 and prepared to delivery subcutaneously 6 mg/kg MK-28 for toxicity studies (n = 8) or 1 mg/kg for therapeutic evaluation in R6/2 mice (n = 72). For toxicity studies mice receiving six times the therapeutic dose of MK-28 or vehicle were weighed every two days for two consecutive weeks. […]. Alzet pumps were implanted in 4 weeks old mice and MK-28 was administered at 1 mg/kg with continuous dosing for 28 days. […]

R6/2 HD mouse model = experiment: Rotarod test; type: in vivo, mice; conditions: 1 mg/kg subcutaneous 28 days
Experimental: Motor activity was assessed by the rotarod test (San Diego Instruments, CA, USA) (0–25 RPM). Relative slow acceleration was used to discriminate small differences between groups particularly at advanced stages of the disease. All mice were trained together before any experimental procedure was performed to set a common baseline. They were required to stay at least 2 minutes without falling in order to participate in the study. R6/2 mice and control littermates were tested every week after pump transplantation. Each test consisted of 3 consecutive measurements of 5 minutes with inter-trial recess of 5 minutes. The latency to fall was recorded and the best performance of the three trials was considered for the analysis.

[8] = read-out: % Enzyme Activity (relative to DMSO controls)

SMILES: CN(/N=C\c1ccc(O)c(O)c1)c1nc(-c2ccccc2)cc(-c2ccccc2)n1 [MK-28]
- protection from ER stress-induced cell death (PERK−/− MEF cells): failed to protect
- HMOX1 mRNA levels (HMOX1 mRNA): upregulation
- % Enzyme Activity (relative to DMSO controls) (panel of 391 kinases [1]): 95.27%
- remaining activity at 1 µM (panel of 391 kinases [1]; [8]): 96.9%
- % Enzyme Activity (relative to DMSO controls) (panel of 391 kinases [2]): 99.16%
- remaining activity at 1 µM (panel of 391 kinases [2]; [8]): 99.5%
- % Enzyme Activity (relative to DMSO controls) (panel of 391 kinases [3]): 96.35%
- remaining activity at 1 µM (panel of 391 kinases [3]; [8]): 96.9%
- % Enzyme Activity (relative to DMSO controls) (panel of 391 kinases [4]): 91.75%
- remaining activity at 1 µM (panel of 391 kinases [4]; [8]): 93%
- % Enzyme Activity (relative to DMSO controls) (panel of 391 kinases [5]): 93.64%
- remaining activity at 1 µM (panel of 391 kinases [5]; [8]): 94.2%
- % Enzyme Activity (relative to DMSO controls) (panel of 391 kinases [6]): 87.19%
- remaining activity at 1 µM (panel of 391 kinases [6]; [8]): 91.2%
- % Enzyme Activity (relative to DMSO controls) (panel of 391 kinases [7]): 93.97%
- remaining activity at 1 µM (panel of 391 kinases [7]; [8]): 95.6%
- toxic effects (B6 wild type mice): No toxic effects
- motor performance (rotarod) of TG mice vs untreated TG (R6/2 HD mouse model; R6/2 TG, week 4): significant improvements in motor performance
- motor performance (rotarod) of WT animals (R6/2 HD mouse model; WT mice): no compromised motor performance
